Target: T1, Syk (Homo sapiens, UniProt P43405)
T1 construct: Purified Syk catalytic domain (aa 356-635 with a C-terminal His-tag purified in-house); His-tag (C); made in house
Experiment: In vitro Syk kinase activity measured by trFRET
Type: biochemical
Conditions: Syk catalytic domain, 0.001 mM ATP
Description: In Vitro Syk Kinase Activity Measured by Time-Resolved Fluorescence Resonance Energy Transfer (trFRET)
After about 60 min incubation at rt, the reaction was quenched by addition of EDTA (final concentration: 100 mM) and developed by addition of revelation reagents (final approximate concentrations: 30 mM HEPES pH 7.0, 0.06% BSA, 0.006% Tween-20, 0.24 M KF, 80 ng/mL PT66K (europium labeled anti-phosphotyrosine antibody cat #61T66KLB Cisbio, Bedford, Mass.) and 0.6 μg/mL SAXL (Phycolink streptavidin-allophycocyanin acceptor, cat #PJ25S, Prozyme, San Leandro, Calif.). The developed reaction was incubated in the dark either at about 4° C. for about 14 h or for about 60 min at rt, then read via a time-resolved fluorescence detector (Rubystar, BMG) using a 337 nm laser for excitation and monitoring emission wavelengths at 665 nm. Within the linear range of the assay, the observed signal at 665 nm was directly related to phosphorylated product and can be used to calculate the IC50 values.

Row | IC50 [nM] | SMILES
1 | 30 to 100 | CC(=O)N1C[C@H](O)C[C@@H]1c1nc(-c2cnc(C(C)(C)C)s2)c2cnc3[nH]ccc3n12 [Example #4, 1-((2R,4R)-2-(3-(2-(tert-Butyl)thiazol-5-yl)-6H-imidazo[1,5-a]pyrrolo[2,3-e]pyrazin-1-yl)-4-hydroxypyrrolidin-1-yl)ethanone]
2 | 10 to 30 | CC(=O)N1C[C@H](O)C[C@@H]1c1nc(-c2ccc(OCC3CC3)cc2)c2cnc3[nH]ccc3n12 [D.1.3, 1-((2R,4R)-2-(3-(4-(cyclopropylmethoxy)phenyl)-6H-imidazo[1,5-a]pyrrolo[2,3-e]pyrazin-1-yl)-4-hydroxypyrrolidin-1-yl)ethanone]
3 | < 10 | CC(=O)N1C[C@H](O)C[C@@H]1c1nc(-c2ccc(N3CC(F)(F)C3)cc2)c2cnc3[nH]ccc3n12 [F.1.9, 1-((2R,4R)-2-(3-(4-(3,3-difluoroazetidin-1-yl)phenyl)-6H-imidazo[1,5-a]pyrrolo[2,3-e]pyrazin-1-yl)-4-hydroxypyrrolidin-1-yl)ethanone]
4 | 10 to 30 | COc1ccc(-c2nc([C@H]3C[C@@H](O)CN3C(C)=O)n3c2cnc2[nH]ccc23)cc1C [F.1.22, 1-((2R,4R)-4-hydroxy-2-(3-(4-methoxy-3-methylphenyl)-6H-imidazo[1,5-a]pyrrolo[2,3-e]pyrazin-1-yl)pyrrolidin-1-yl)ethanone]
5 | 30 to 100 | CC(=O)N1C[C@H](O)C[C@@H]1c1nc(-c2ccc(C(F)(F)F)cc2)c2cnc3[nH]ccc3n12 [Example #A.1.4, 1-((2R,4R)-4-hydroxy-2-(3-(4-(trifluoromethyl)phenyl)-6H-imidazo[1,5-a]pyrrolo[2,3-e]pyrazin-1-yl)pyrrolidin-1-yl)ethanone]
6 | < 10 | CCOc1ccc(-c2nc([C@H]3C[C@@H](O)CN3C(C)=O)n3c2cnc2[nH]ccc23)cc1C [F.1.28, 1-((2R,4R)-2-(3-(4-ethoxy-3-methylphenyl)-6H-imidazo[1,5-a]pyrrolo[2,3-e]pyrazin-1-yl)-4-hydroxypyrrolidin-1-yl)ethanone]
7 | < 10 | CC(=O)N1C[C@H](O)C[C@@H]1c1nc(-c2ccc(C(C)(C)O)cc2)c2cnc3[nH]ccc3n12 [F.1.15, 1-((2R,4R)-4-hydroxy-2-(3-(4-(2-hydroxypropan-2-yl)phenyl)-6H-imidazo[1,5-a]pyrrolo[2,3-e]pyrazin-1-yl)pyrrolidin-1-yl)ethanone]
8 | < 10 | CC(=O)N1C[C@H](O)C[C@@H]1c1nc(-c2ccc(N3CCO[C@H](C)C3)cc2)c2cnc3[nH]ccc3n12 [Example #5 (R), 1-((2R,4R)-4-hydroxy-2-(3-(4-((R)-2-methylmorpholino)phenyl)-6H-imidazo[1,5-a]pyrrolo[2,3-e]pyrazin-1-yl)pyrrolidin-1-yl)ethanone]
9 | 10 to 30 | CC(=O)N1C[C@H](O)C[C@@H]1c1nc(-c2ccsc2)c2cnc3[nH]ccc3n12 [A.1.1]
10 | 10 to 30 | CC(=O)N1C[C@H](O)C[C@@H]1c1nc(-c2ccc(OC3CC3)cc2)c2cnc3[nH]ccc3n12 [F.1.31]
11 | 10 to 30 | CC(=O)N1C[C@H](O)C[C@@H]1c1nc(-c2ccc(C(C)(C)O)c(F)c2)c2cnc3[nH]ccc3n12 [F.1.5, 1-((2R,4R)-2-(3-(3-fluoro-4-(2-hydroxypropan-2-yl)phenyl)-6H-imidazo[1,5-a]pyrrolo[2,3-e]pyrazin-1-yl)-4-hydroxypyrrolidin-1-yl)ethanone]
12 | 10 to 30 | CC(=O)N1C[C@H](O)C[C@@H]1c1nc(-c2ccc(C3(O)CCC3)cc2)c2cnc3[nH]ccc3n12 [F.1.27, 1-((2R,4R)-4-hydroxy-2-(3-(4-(1-hydroxycyclobutyl)phenyl)-6H-imidazo[1,5-a]pyrrolo[2,3-e]pyrazin-1-yl)pyrrolidin-1-yl)ethanone]
13 | 10 to 30 | CC(=O)N1C[C@H](O)C[C@@H]1c1nc(-c2ccc(OCC3(C)COC3)cc2)c2cnc3[nH]ccc3n12 [D.1.1, 1-((2R,4R)-4-hydroxy-2-(3-(4-((3-methyloxetan-3-yl)methoxy)phenyl)-6H-imidazo[1,5-a]pyrrolo[2,3-e]pyrazin-1-yl)pyrrolidin-1-yl)ethanone]
14 | < 10 | CC(=O)N1C[C@H](O)C[C@@H]1c1nc(-c2ccc(N3CCCCC3)cc2)c2cnc3[nH]ccc3n12 [F.1.1.13, 1-((2R,4R)-4-hydroxy-2-(3-(4-(piperidin-1-yl)phenyl)-6H-imidazo[1,5-a]pyrrolo[2,3-e]pyrazin-1-yl)pyrrolidin-1-yl)ethanone]
15 | 10 to 30 | COCCOc1ccc(-c2nc([C@H]3C[C@@H](O)CN3C(C)=O)n3c2cnc2[nH]ccc23)cc1 [F.1.21, 1-((2R,4R)-4-hydroxy-2-(3-(4-(2-methoxyethoxy)phenyl)-6H-imidazo[1,5-a]pyrrolo[2,3-e]pyrazin-1-yl)pyrrolidin-1-yl)ethanone]
16 | < 10 | CC(=O)N1C[C@H](O)C[C@@H]1c1nc(-c2ccc(C(C)(C)C#N)cc2)c2cnc3[nH]ccc3n12 [F.1.16, 2-(4-(1-((2R,4R)-1-acetyl-4-hydroxypyrrolidin-2-yl)-6H-imidazo[1,5-a]pyrrolo[2,3-e]pyrazin-3-yl)phenyl)-2-methylpropanenitrile]
17 | 30 to 100 | COCc1ccc(-c2nc([C@H]3C[C@@H](O)CN3C(C)=O)n3c2cnc2[nH]ccc23)cc1 [Example #7, 1-((2R,4R)-4-Hydroxy-2-(3-(4-(methoxymethyl)phenyl)-6H-imidazo[1,5-a]pyrrolo[2,3-e]pyrazin-1-yl)pyrrolidin-1-yl)ethanone]
18 | 30 to 100 | CC(=O)N1C[C@H](O)C[C@@H]1c1nc(-c2ccc(OCCn3nccn3)cc2)c2cnc3[nH]ccc3n12 [A.1.3, 1-((2R,4R)-2-(3-(4-(2-(2H-1,2,3-triazol-2-yl)ethoxy)phenyl)-6H-imidazo[1,5-a]pyrrolo[2,3-e]pyrazin-1-yl)-4-hydroxypyrrolidin-1-yl)ethanone]
19 | 10 to 30 | CO[C@H](C)c1ccc(-c2nc([C@H]3C[C@@H](O)CN3C(C)=O)n3c2cnc2[nH]ccc23)cc1 [F.1.2, 1-((2R,4R)-4-hydroxy-2-(3-(4-((R)-1-methoxyethyl)phenyl)-6H-imidazo[1,5-a]pyrrolo[2,3-e]pyrazin-1-yl)pyrrolidin-1-yl)ethanone]
20 | > 100 | CC(=O)N1C[C@H](O)C[C@@H]1c1nc(-c2ccc3c(c2)OCO3)c2cnc3[nH]ccc3n12 [F.1.24, 1-((2R,4R)-2-(3-(benzo[d][1,3]dioxol-5-yl)-6H-imidazo[1,5-a]pyrrolo[2,3-e]pyrazin-1-yl)-4-hydroxypyrrolidin-1-yl)ethanone]
21 | < 10 | CO[C@@H](C)c1ccc(-c2nc([C@H]3C[C@@H](O)CN3C(C)=O)n3c2cnc2[nH]ccc23)cc1 [F.1.3, 1-((2R,4R)-4-hydroxy-2-(3-(4-((S)-1-methoxyethyl)phenyl)-6H-imidazo[1,5-a]pyrrolo[2,3-e]pyrazin-1-yl)pyrrolidin-1-yl)ethanone]
22 | 30 to 100 | CC(=O)N1C[C@H](O)C[C@@H]1c1nc(-c2ccc(O[C@H](C)C3CC3)cc2)c2cnc3[nH]ccc3n12 (single isomer, unassigned) [Example #2]
23 | 30 to 100 | CC(=O)N1C[C@H](O)C[C@@H]1c1nc(-c2ccc(NC(C)C)cc2)c2cnc3[nH]cc(C)c3n12 [Example #11, 1-((2R,4R)-4-Hydroxy-2-(3-(4-(isopropylamino)phenyl)-8-methyl-6H-imidazo[1,5-a]pyrrolo[2,3-e]pyrazin-1-yl)pyrrolidin-1-yl)ethanone]
24 | 30 to 100 | CC(=O)N1C[C@H](O)C[C@@H]1c1nc(-c2ccc(OCC(F)(F)F)cc2)c2cnc3[nH]ccc3n12 [Example #9, 1-((2R,4R)-4-Hydroxy-2-(3-(4-(2,2,2-trifluoroethoxy)phenyl)-6H-imidazo[1,5-a]pyrrolo[2,3-e]pyrazin-1-yl)pyrrolidin-1-yl)ethanone]
25 | < 10 | CC(=O)N1C[C@H](O)C[C@@H]1c1nc(-c2ccc(N3CCC(F)(F)CC3)cc2)c2cnc3[nH]ccc3n12 [F.1.8, 1-((2R,4R)-2-(3-(4-(4,4-difluoropiperidin-1-yl)phenyl)-6H-imidazo[1,5-a]pyrrolo[2,3-e]pyrazin-1-yl)-4-hydroxypyrrolidin-1-yl)ethanone]
26 | 10 to 30 | CCOc1ccc(-c2nc([C@H]3C[C@@H](O)CN3C(C)=O)n3c2cnc2[nH]cc(Cl)c23)cc1 [F.1.11, 1-((2R,4R)-2-(8-chloro-3-(4-ethoxyphenyl)-6H-imidazo[1,5-a]pyrrolo[2,3-e]pyrazin-1-yl)-4-hydroxypyrrolidin-1-yl)ethanone]
27 | 10 to 30 | CC(=O)N1C[C@H](O)C[C@@H]1c1nc(-c2ccc3c(c2)NCCO3)c2cnc3[nH]ccc3n12 [F.1.29, 1-((2R,4R)-2-(3-(3,4-dihydro-2H-benzo[b][1,4]oxazin-6-yl)-6H-imidazo[1,5-a]pyrrolo[2,3-e]pyrazin-1-yl)-4-hydroxypyrrolidin-1-yl)ethanone]
28 | < 10 | CC(=O)N1C[C@H](O)C[C@@H]1c1nc(-c2ccc(N3CCOCC3)cc2)c2cnc3[nH]cc(Cl)c3n12 [F.1.10, 1-((2R,4R)-2-(8-chloro-3-(4-morpholinophenyl)-6H-imidazo[1,5-a]pyrrolo[2,3-e]pyrazin-1-yl)-4-hydroxypyrrolidin-1-yl)ethanone]
29 | 30 to 100 | CC(=O)N1C[C@H](O)C[C@@H]1c1nc(-c2ccc(C(F)F)cc2)c2cnc3[nH]ccc3n12 [A.1.5, 1-((2R,4R)-2-(3-(4-(difluoromethyl)phenyl)-6H-imidazo[1,5-a]pyrrolo[2,3-e]pyrazin-1-yl)-4-hydroxypyrrolidin-1-yl)ethanone]

Row | SMILES | IC50 [nM]
30 | COc1ccc(-c2nc([C@H]3C[C@@H](O)CN3C(=O)CF)n3c2cnc2[nH]ccc23)cc1 [E.1.1] | 10 to 30

From US20140315883A1, “6H-IMIDAZO[1,5-a]PYRROLO[2,3-e]PYRAZINE COMPOUNDS” (ABBVIE INC., priority 2013, published 2014)
